Tested on: TNFα
Test: Effect on TNFα expression, cell based immunoassay in RAW 264.7 cells
Set-up: species or system mouse
Protocol: This was carried out using a cell based immunoassay using mouse monocyte/macrophage cells (RAW 264.7; ATCC American Tissue Culture Collection). The experiment was done in triplicates. The data were analyzed by t-test. […] Based on this tryptophan is an ant-inflammatory amino acid.

`N[C@@H](Cc1c[nH]c2ccccc12)C(=O)O` [Tryptophan] was tested, and the TNFα (Tryptophan 50 μg/ml, control Medium + LPS 1 μg/ml 6156, triplicates) was 4869 pg/mL and the “TNFα, treated value versus control value (t-test)” value (p<0.05) was “significant difference”.

— patent US20100063127A1, “Antioxidant Properties of Tryptophan from Human Milk” (priority 2008, published 2010)
